From ChEMBL document CHEMBL5344478, “Cytochrome bd oxidase: an emerging anti-tubercular drug target” (RSC Med Chem, 2024)

tested on: Mycobacterium tuberculosis variant bovis; test: Antibacterial activity against Mycobacterium bovis BCG assessed as reduction in bacterial growth; assay type: functional, organism-based

Compound	IC50 [µM]
CC(C)(C)c1ccc(CCNc2ncnc3ccsc23)cc1	5.8
Fc1ccc2c(NCCc3ccc(OC(F)(F)F)cc3)ncnc2c1	0.8
CC(C)(C)c1ccc(CCNc2ncnc3ccccc23)cc1	0.8
